Laboratory results: patent US9776965B2, “Pyrrolidin-2-one and piperidin-2-one derivatives as 11-beta hydroxysteroid dehydrogenase inhibitors” (Janssen Pharmaceutica N.V., priority 2004, dated 2017)

Experiments:
11b-HSD2 [1] = target: T1, 11b-HSD2 (Homo sapiens, UniProt P80365); assay: Cellular assay, 11b-HSD2 activity in HepG2 cells; format: cell-based; parameters: endogenous in cells; host or cells: HepG2 (ATCC HB-8065); conditions: 4 hour pre-incubation; for IC50: read-out: [C2] HSD2 cellular HepG2 Score
T1 sequence (P80365 1-405): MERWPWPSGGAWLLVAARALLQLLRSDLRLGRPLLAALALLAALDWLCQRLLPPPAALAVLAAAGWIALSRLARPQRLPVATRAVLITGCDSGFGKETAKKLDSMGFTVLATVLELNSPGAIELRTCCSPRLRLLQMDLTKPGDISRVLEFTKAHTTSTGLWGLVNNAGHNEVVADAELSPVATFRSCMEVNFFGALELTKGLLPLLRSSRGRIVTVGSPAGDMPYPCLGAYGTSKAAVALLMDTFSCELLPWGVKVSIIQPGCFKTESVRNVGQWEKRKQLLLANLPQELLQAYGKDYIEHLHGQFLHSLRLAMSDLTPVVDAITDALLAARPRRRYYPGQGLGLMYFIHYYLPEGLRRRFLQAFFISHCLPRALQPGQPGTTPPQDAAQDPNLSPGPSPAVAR
Method: The effects on 11b-HSD2 activity was studied in HepG2 and LCC-PK1-cells HepG2-cells (ATCC HB-8065) were seeded in 12 well plates at a density of 100,000 cells/ml and grown at 37 C in a humidified 5% CO2 atmosphere in MEM-Rega-3 medium supplemented with 10% heat inactivated foetal calf serum, 2 mM L-glutamine and sodium bicarbonate). Medium was refreshed twice a week.
Following a 4 hour pre-incubation with test compound, 0.5 μCi ^3H-cortisol or corticosterone, was added to the cultures. One hour later, the medium was extracted on Extrelut^3-columns with 15 ml diethyl ether and the extract was analysed by HPLC as described above.
(§1) As for the enzymatic assays, the compounds to be tested were taken from a stock solution and tested at a final concentration ranging from […] to 3.10^−9M. From the thus obtained dose response curves, the pIC50 value was calculated and scored as follows; Score 1=pIC50 value<5, Score 2=pIC50 value in the range of 5 to 6, Score 3=pIC50 value>6. Some of the thus obtained results are summarized in the table below (in this table NT stands for Not Tested).

11b-HSD1 [2] = target: T2, 11b-HSD1 (Mus musculus, UniProt P50172); assay: Cellular assay, 11b-HSD1 activity in differentiated 3T3-L1 cells; format: cell-based; conditions: 4 hour pre-incubation; for IC50: read-out: [C2] HSD1 cellular 3T3-L1 Score
T2 construct: Fibroblasts were differentiated into adipocytes; endogenous in cells; host or cells: differentiated 3T3-L1 cells (ATCC-CL-173)
T2 sequence (P50172 whole entry): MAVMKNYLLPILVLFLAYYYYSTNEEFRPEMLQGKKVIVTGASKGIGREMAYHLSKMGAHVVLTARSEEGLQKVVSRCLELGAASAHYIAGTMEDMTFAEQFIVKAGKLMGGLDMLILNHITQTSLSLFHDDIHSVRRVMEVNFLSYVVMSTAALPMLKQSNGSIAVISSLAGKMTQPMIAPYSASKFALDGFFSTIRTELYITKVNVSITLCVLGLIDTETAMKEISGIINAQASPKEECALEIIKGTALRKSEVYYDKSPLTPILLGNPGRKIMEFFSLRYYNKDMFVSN
Method: The effects on 11b-HSD1 activity was measured in differentiated 3T3-L1 cells and rat hepatocytes.
Mouse fibroblast 3T3-L1 cells (ATCC-CL-173) were seeded at a density of 16500 cells/ml in 12 well plates and grown for 7 days in DMEM medium (supplemented with 10% heat inactivated foetal calf serum, 2 mM glutamine and 25 mg gentamycin) at 37 C in a humidified 5% CO2 atmosphere. Medium was refreshed twice a week. Fibroblasts were differentiated into adipocytes at 37 C in a 5% CO2 humidified atmosphere in growth medium containing 2 μg/ml insulin, 55 μg/ml IBMX and 39.2 μg/ml dexamethasone.
Following a 4 hour pre-incubation with test compound, 0.5 μCi ^3H-cortisone or dehydrocorticosterone, was added to the cultures. One hour later, the medium was extracted on Extrelut^3-columns with 15 ml diethyl ether and the extract was analysed by HPLC as described above.
as §1

11b-HSD2 [3] = target: T1, 11b-HSD2; assay: Enzymatic assay, 11b-HSD2 dependent dehydrogenase activity; format: biochemical; conditions: recombinant protein, 100 nM cortisol, 45 min at 37 C; read-out: [C1] HSD2 prot Dehydro Score
Method: The effects on the 11b-HSD2 dependent dehydrogenase activity was studied in a reaction mixture containing 0.1M sodium phosphate buffer pH 7.5, 300 μM NAD, 100 nM cortisol (of which 2 nM is 3H-radio labelled), 1 μl drug and/or solvent and 2.5 μg recombinant protein in a final volume of 100 μl.
(§2) All incubations were performed for 45 min at 37 C in a water bath. The reaction was stopped by adding 100 μl acetonitrile containing 20 μg corticosterone as internal standard. After centrifugation, the product formation was analysed in the supernatant by HPLC on a Hypersyl BDS-C18 column using 0.05 mM ammonium acetate/methanol (50/50) as solvent. In all of the aforementioned assays, the drugs to be tested were taken from a stock solution and tested at a final concentration ranging from […] to 3.10^−9M. From the thus obtained dose response curves, the pIC50 value was calculated and scored as follows; Score 1=pIC50 value<5, Score 2=pIC50 value in the range of 5 to 6, Score 3=pIC50 value>6. (in this table NT stands for Not Tested).

11b-HSD1 [4] = target: 11b-HSD1 (Homo sapiens, UniProt P28845); assay: Enzymatic assay, 11b-HSD1 dependent conversion of cortisone into cortisol (reductase activity); format: biochemical; conditions: recombinant protein, 2 μM cortisone, 45 min at 37 C; for IC50: read-out: [C1] HSD1-prot Reduct Score
Chain of 11b-HSD1 (Homo sapiens, UniProt P28845) (P28845 whole entry): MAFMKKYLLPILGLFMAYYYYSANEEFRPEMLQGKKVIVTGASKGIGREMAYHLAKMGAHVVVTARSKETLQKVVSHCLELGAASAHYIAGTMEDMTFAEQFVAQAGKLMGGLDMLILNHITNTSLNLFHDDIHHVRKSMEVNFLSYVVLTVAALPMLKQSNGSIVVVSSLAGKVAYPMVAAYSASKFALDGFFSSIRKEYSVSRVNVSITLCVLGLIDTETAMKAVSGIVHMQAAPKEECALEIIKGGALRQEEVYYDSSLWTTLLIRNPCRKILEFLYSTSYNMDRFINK
Method: The effects of compounds on 11b-HSD1 dependent conversion of cortisone into cortisol (reductase activity) was studied in a reaction mixture containing 30 mM Tris-HCl buffer pH 7.2, 180 μM NADPH, 1 mM EDTA, 2 μM cortisone, 1 μl drug and/or solvent and 11 μg recombinant protein in a final volume of 100 μl.
as §2

Structure (SMILES) | IC50 (11b-HSD2 [1]) | IC50 (11b-HSD1 [2]) | IC50 (11b-HSD2 [3]) | IC50 (11b-HSD1 [4]) | [C2] HSD2 cellular HepG2 Score (11b-HSD2 [1]) | [C2] HSD1 cellular 3T3-L1 Score (11b-HSD1 [2]) | [C1] HSD1-prot Reduct Score (11b-HSD1 [4])
Cc1ccccc1C[C@@H]1CCN([C@@H](C)c2ccccc2)C1=O [Compound 1] | > 10 µM | < 1 µM | > 10 µM | < 1 µM | – | – | –
Cc1ccccc1C[C@H]1CCN([C@@H](C)c2ccccc2)C1=O [Compound 2] | > 10 µM | 1 to 10 µM | – | 1 to 10 µM | – | – | –
Cc1ccc(C[C@@H]2CCN([C@@H](C)c3ccccc3)C2=O)cc1 [Compound 3] | > 10 µM | 1 to 10 µM | – | < 1 µM | – | – | –
Cc1ccc(C[C@H]2CCN([C@@H](C)c3ccccc3)C2=O)cc1 [Compound 4] | > 10 µM | 1 to 10 µM | – | > 10 µM | – | – | –
C[C@@H](c1ccccc1)N1CC[C@@H](Cc2ccccc2)C1=O [Compound 5] | > 10 µM | 1 to 10 µM | – | 1 to 10 µM | – | – | –
C[C@@H](c1ccccc1)N1CC[C@H](Cc2ccccc2)C1=O [Compound 6] | > 10 µM | 1 to 10 µM | – | 1 to 10 µM | – | – | –
COc1ccccc1C[C@H]1CCN([C@@H](C)c2ccccc2)C1=O [Compound 7] | > 10 µM | < 1 µM | > 10 µM | 1 to 10 µM | – | – | –
C[C@@H](c1ccccc1)N1CC[C@H](Cc2ccccc2Cl)C1=O [Compound 9] | > 10 µM | < 1 µM | > 10 µM | 1 to 10 µM | – | – | –
C[C@@H](c1ccccc1)N1CC[C@@H](Cc2ccccc2Cl)C1=O [Compound 10] | > 10 µM | < 1 µM | > 10 µM | < 1 µM | – | – | –
C[C@@H](c1ccccc1)N1CC[C@H](Cc2c(Cl)cccc2Cl)C1=O [Compound 13] | > 10 µM | < 1 µM | > 10 µM | < 1 µM | – | – | –
Cc1ccc(C[C@@H]2CCN([C@H](C)c3ccccc3)C2=O)cc1 [Compound 27] | > 10 µM | < 1 µM | > 10 µM | > 10 µM | – | – | –
Cc1ccccc1CC1CCN(CCc2ccccc2)C1=O (stereo not shown) [Compound 28] | > 10 µM | < 1 µM | > 10 µM | > 10 µM | – | – | –
O=C1C(Cc2ccccc2Cl)CCN1CCc1ccccc1 (stereo not shown) [Compound 30] | > 10 µM | < 1 µM | > 10 µM | < 1 µM | – | – | –
O=C1C(Cc2cccc(Cl)c2Cl)CCN1CCc1ccccc1 (stereo not shown) [Compound 31] | > 10 µM | < 1 µM | > 10 µM | 1 to 10 µM | – | – | –
O=C1C(Cc2c(Cl)cccc2Cl)CCN1CCc1ccccc1 (stereo not shown) [Compound 32] | > 10 µM | < 1 µM | > 10 µM | < 1 µM | – | – | –
Cc1ccc(CC2CCN(CCc3ccccc3)C2=O)cc1 (stereo not shown) [Compound 35] | > 10 µM | < 1 µM | > 10 µM | > 10 µM | – | – | –
C[C@H](c1ccccc1)N1CC[C@H](Cc2ccccc2Cl)C1=O [Compound 41] | > 10 µM | < 1 µM | > 10 µM | 1 to 10 µM | – | – | –
C[C@H](c1ccccc1)N1CC[C@H](Cc2c(Cl)cccc2Cl)C1=O [Compound 45] | > 10 µM | < 1 µM | > 10 µM | < 1 µM | – | – | –
O=C1C(Cc2ccccc2Cl)CCN1Cc1ccccc1 (stereo not shown) [Compound 57] | > 10 µM | < 1 µM | > 10 µM | 1 to 10 µM | – | – | –
O=C1C(Cc2c(Cl)cccc2Cl)CCN1Cc1ccccc1 (stereo not shown) [Compound 59] | > 10 µM | < 1 µM | > 10 µM | 1 to 10 µM | – | – | –

Structure (SMILES) | IC50 (11b-HSD2 [1]) | IC50 (11b-HSD1 [2]) | IC50 (11b-HSD2 [3]) | IC50 (11b-HSD1 [4]) | [C2] HSD2 cellular HepG2 Score (11b-HSD2 [1]) | [C2] HSD1 cellular 3T3-L1 Score (11b-HSD1 [2]) | [C1] HSD1-prot Reduct Score (11b-HSD1 [4])
Cc1ccc([C@H](O)[C@@H]2CCN([C@@H](C)c3ccccc3)C2=O)c(C)c1 [Compound 69] | > 10 µM | < 1 µM | – | 1 to 10 µM | – | – | –
C[C@@H](c1ccccc1)N1CC[C@@H](Cc2c(F)cccc2F)C1=O [Compound 70] | > 10 µM | < 1 µM | – | > 10 µM | – | – | –
C[C@@H](c1ccccc1)N1CC[C@H](Cc2c(F)cccc2F)C1=O [Compound 71] | > 10 µM | < 1 µM | – | < 1 µM | – | – | –
Cc1cccc(C)c1C[C@H]1CCN([C@@H](C)c2ccccc2)C1=O [Compound 77] | – | – | – | – | 1 (Score 1=pIC50 value<5) | 3 (Score 3=pIC50 value>6) | 3 (Score 3=pIC50 value>6)
O=C1C(Cc2c(Cl)cccc2Cl)CCN1CCc1ccc(F)cc1 (stereo not shown) [Compound 80] | > 10 µM | < 1 µM | – | < 1 µM | – | – | –
Cc1cccc(C)c1C[C@H]1CCN([C@@H](C)c2ccccc2)C1=O [Compound 148] | > 10 µM | < 1 µM | – | > 10 µM | – | – | –
Cc1cccc(C)c1C[C@@H]1CCN([C@@H](C)c2ccccc2)C1=O [Compound 149] | > 10 µM | < 1 µM | – | > 10 µM | – | – | –
C[C@@H](c1ccccc1)N1CC[C@@H](Cc2ccc(F)cc2Cl)C1=O [Compound 151] | – | < 1 µM | – | < 1 µM | – | – | –
C[C@@H](c1ccccc1)N1CC[C@H](Cc2ccc3c(c2)OCO3)C1=O [Compound 152] | – | < 1 µM | – | 1 to 10 µM | – | – | –
C[C@@H](c1ccccc1)N1CC[C@@H](Cc2ccc3c(c2)OCO3)C1=O [Compound 153] | – | 1 to 10 µM | – | 1 to 10 µM | – | – | –
C[C@@H](c1ccccc1)N1CC[C@H](Cc2cc3c(cc2Cl)OCO3)C1=O [Compound 154] | 1 to 10 µM | < 1 µM | – | > 10 µM | – | – | –
C[C@@H](c1ccccc1)N1CC[C@@H](Cc2cc3c(cc2Cl)OCO3)C1=O [Compound 155] | – | < 1 µM | – | < 1 µM | – | – | –
CO[C@H](C[C@@H]1CCN([C@@H](C)c2ccccc2)C1=O)c1ccccc1 [Compound 156] | – | 1 to 10 µM | – | 1 to 10 µM | – | – | –
CO[C@H](C[C@H]1CCN([C@@H](C)c2ccccc2)C1=O)c1ccccc1 [Compound 157] | – | < 1 µM | – | 1 to 10 µM | – | – | –
C[C@@H](c1ccccc1)[C@@H]1CCN([C@@H](C)c2ccccc2)C1=O [Compound 158] | – | < 1 µM | – | < 1 µM | – | – | –
C[C@H](c1ccccc1)[C@H]1CCN([C@@H](C)c2ccccc2)C1=O [Compound 159] | – | < 1 µM | – | < 1 µM | – | – | –
C[C@@H](c1ccccc1)[C@H]1CCN([C@@H](C)c2ccccc2)C1=O [Compound 160] | – | > 10 µM | – | < 1 µM | – | – | –
C[C@H](c1ccccc1)[C@@H]1CCN([C@@H](C)c2ccccc2)C1=O [Compound 161] | – | > 10 µM | – | 1 to 10 µM | – | – | –
COc1cc(CC2(Cc3ccc(OCc4ccccc4)c(OC)c3)CCN(CCc3ccccc3)C2=O)ccc1OCc1ccccc1 [Compound 164] | – | > 10 µM | – | > 10 µM | – | – | –
